Source: ChEMBL document CHEMBL1777759, “Synthesis of benzologues of Nitazoxanide and Tizoxanide: a comparative study of their in vitro broad-spectrum antiprotozoal activity” (Bioorg Med Chem Lett, 2011)

What was measured:
[1] = Selectivity index, ratio of CC50 for african green monkey Vero cells to IC50 for Trypanosoma cruzi MHOM/MX/1994/Ninoa; type: functional
Giardia intestinalis = assay: Antiprotozoan activity against Giardia intestinalis IMSS:0696:1 trophozoites after 48 hrs; type: functional, organism-based; conditions: Giardia duodenalis, IMSS:0696:1, 48 h
[2] = Selectivity index, ratio of CC50 for african green monkey Vero cells to IC50 for Entamoeba histolytica HM1-IMSS; type: functional
Trichomonas vaginalis = assay: Antiprotozoan activity against Trichomonas vaginalis GT3 trophozoites after 48 hrs; type: functional, organism-based; conditions: GT3, 48 h
[3] = Selectivity index, ratio of CC50 for african green monkey Vero cells to IC50 for Plasmodium berghei; type: functional
[4] = Cytotoxicity against african green monkey Vero cells after 72 hrs by MTT assay; type: cell-based; conditions: chlorocebus sabaeus
Entamoeba histolytica [5] = assay: Ratio of IC50 for pentamidine to compound for Entamoeba histolytica HM1-IMSS; type: functional
Entamoeba histolytica [6] = assay: Antiprotozoan activity against Entamoeba histolytica HM1-IMSS trophozoites after 48 hrs; type: functional, organism-based
[7] = Selectivity index, ratio of CC50 for african green monkey Vero cells to IC50 for Giardia intestinalis IMSS:0696:1; type: functional
Trypanosoma cruzi [8] = assay: Ratio of IC50 for benzanidazole to compound for Trypanosoma cruzi MHOM/MX/1994/Ninoa; type: functional
Trypanosoma cruzi [9] = assay: Antitrypanosomal activity against Trypanosoma cruzi MHOM/MX/1994/Ninoa epimastigotes after 72 hrs by neubauer chamber; type: functional, organism-based
Leishmania mexicana = assay: Antileishmanial activity against Leishmania mexicana MHOM/MX/ISETGS promastigotes after 72 hrs by neubauer chamber; type: functional, organism-based
[10] = Selectivity index, ratio of CC50 for african green monkey Vero cells to IC50 for Trichomonas vaginalis GT3; type: functional
Plasmodium berghei = assay: Antimalarial activity against Plasmodium berghei schizonts isolated from parasitized erythrocytes infected Wistar rat measured 16 hrs post compound exposure; type: functional, organism-based
[11] = Selectivity index, ratio of CC50 for african green monkey Vero cells to IC50 for Leishmania mexicana MHOM/MX/ISETGS; type: functional

Row | Structure (SMILES) | IC50 (Giardia intestinalis) [µM] | IC50 (Trichomonas vaginalis) [µM] | IC50 (Entamoeba histolytica [6]) [µM] | IC50 (Trypanosoma cruzi [9]) [µM] | IC50 (Leishmania mexicana) [µM] | IC50 (Plasmodium berghei) [µM] | Ratio CC50/IC50 [1] | Ratio CC50/IC50 [2] | Ratio CC50/IC50 [3] | CC50 at 72 h [4] [µM] | Ratio IC50 (Entamoeba histolytica [5]) | Ratio CC50/IC50 [7] | Ratio IC50 (Trypanosoma cruzi [8]) | Ratio CC50/IC50 [10] | Ratio CC50/IC50 [11]
1 | CC(=O)Oc1ccccc1C(=O)Nc1nc2ccc([N+](=O)[O-])cc2s1 | 0.297 | 0.842 | 3.52 | 4.89 | 1.35 | 2.42 | 140 | 194 | 282 | 683 | 10 | 2300 | 7 | 811 | 506
2 | O=C(Nc1nc2ccc([N+](=O)[O-])cc2s1)c1ccccc1O | 0.59 | 2.15 | 8.02 | > 50 | > 50 | 2.37 | – | 76 | 256 | 607 | – | 1029 | – | 283 | –
3 | O=C(Cn1ccnc1[N+](=O)[O-])NCc1ccccc1 [BENZNIDAZOLE] | – | – | – | – | > 50 | 4.07 | – | – | – | 14 | – | – | – | – | –
4 | Cc1ncc([N+](=O)[O-])n1CCO [METRONIDAZOLE] | – | – | – | > 50 | > 50 | > 50 | – | – | – | 387 | – | – | – | – | –
5 | CC(=O)Oc1ccccc1C(=O)Nc1ncc([N+](=O)[O-])s1 [NITAZOXANIDE] | 1.21 | 0.068 | 0.504 | 18.7 | 6.18 | 3.89 | 44 | 1653 | 214 | 833 | – | 686 | – | 12250 | 135

Now from value to molecule, other results behind:

Row | IC50 (Giardia intestinalis) [µM] | IC50 (Trichomonas vaginalis) [µM] | IC50 (Entamoeba histolytica [6]) [µM] | IC50 (Trypanosoma cruzi [9]) [µM] | IC50 (Leishmania mexicana) [µM] | IC50 (Plasmodium berghei) [µM] | Structure (SMILES) | Ratio CC50/IC50 [1] | Ratio CC50/IC50 [2] | Ratio CC50/IC50 [3] | CC50 at 72 h [4] [µM] | Ratio IC50 (Entamoeba histolytica [5]) | Ratio CC50/IC50 [7] | Ratio IC50 (Trypanosoma cruzi [8]) | Ratio CC50/IC50 [10] | Ratio CC50/IC50 [11]
6 | – | – | – | > 50 | – | 2.94 | N=C(N)c1ccc(OCCCCCOc2ccc(C(=N)N)cc2)cc1 [PENTAMIDINE] | – | – | – | 47 | – | – | – | – | –
7 | 0.716 | 0.211 | 1.23 | 17.5 | 6.19 | 5.24 | O=C(Nc1ncc([N+](=O)[O-])s1)c1ccccc1O [TIZOXANIDE] | 22 | 316 | 74 | 388 | – | 542 | – | 1839 | 63
